Results as given in ChEMBL document CHEMBL3804804, “Synthesis and antimycobacterial activity of N-(2-aminopurin-6-yl) and N-(purin-6-yl) amino acids and dipeptides” (Bioorg Med Chem Lett, 2016).

system: not listed separately; test: Selectivity index, ratio of IC50 for human FEH cells to MIC for multidrug-resistant Mycobacterium tuberculosis; assay type: toxicity, cell-based

Row | Compound | selectivity ratio
1 | Nc1nc(NCC(=O)N[C@@H](CCC(=O)O)C(=O)O)c2nc[nH]c2n1 | > 25
2 | O.O=C(O)CC[C@H](NC(=O)CNc1ncnc2[nH]cnc12)C(=O)O | > 25

system: Mycobacterium tuberculosis; test: Antimycobacterial activity against multidrug-resistant Mycobacterium tuberculosis harbouring Beijing genotype with combination of mutations of Ser 53-Leu 315 and Ser-Thr in rpoB and katG genes after 10 days by micro broth dilution method; assay type: functional

Row | Compound | MIC [µg/mL]
3 | CC(=O)Nc1nc(N2CCC[C@H]2C(=O)OC(C)(C)C)c2nc[nH]c2n1 | 6.25
4 | CC(=O)Nc1nc(NCC(=O)O)c2nc[nH]c2n1 | 0.7
5 | CC(C)[C@H](Nc1nc(N)nc2[nH]cnc12)C(=O)O | 6.25
6 | CSCC[C@H](NC(=O)CNc1nc(N)nc2[nH]cnc12)C(=O)O.O | 3.1
7 | Nc1nc(NCC(=O)N[C@@H](CCC(=O)O)C(=O)O)c2nc[nH]c2n1 | 0.7
8 | COC(=O)[C@H](CCSC)NC(=O)CNc1nc(NC(C)=O)nc2[nH]cnc12 | 3.1
9 | COC(=O)CNc1nc(N)nc2[nH]cnc12.Cl.Cl | 6.25
10 | O.O=C(O)CC[C@H](NC(=O)CNc1ncnc2[nH]cnc12)C(=O)O | 0.7
11 | COC(=O)[C@H](Cc1ccccc1)NC(=O)CNc1ncnc2[nH]cnc12 | 1.5
12 | CC1COc2c(N3CCN(C)CC3)c(F)cc3c(=O)c(C(=O)O)cn1c23 (configuration not stated) [OFLOXACIN] | 0.1
